# Experimental data from patent US7528141B2, “Use of cyclopenta[g]quinazoline derivatives for treating cancer” (BTG International Limited, priority 2001, dated 2009).
# “And” between values parts separate entries of the source, which are not always exact repeats. Equal entries are not always repeated. Where two headings read alike, the source gives them in different places.
# What was measured:
# [1] = test system: A431 cells; test: Inhibition of cell growth, A431 cells; conditions: for fold increased IC50 in presence of folic acid, A431: 20 nM LV, IC50 + 1 μM FA vs without FA; for IC50: Homo sapiens, A-431, read-out: Inhibition of cell growth, IC50, A431
# [2] = test system: A431-FBP cells; test: Inhibition of cell growth, A431-FBP cells; conditions: for fold increased sensitivity compared with A431, A431-FBP: A431 IC50 vs A431-FBP IC50; for fold increased IC50 in presence of folic acid, A431-FBP: IC50 + 1 μM FA vs without FA
# [3] = target: T1, reduced-folate carrier (RFC) (Mus musculus, UniProt P41438); test: Inhibition of 3H MTX uptake in L1210 cells; assay type: cell-based; conditions: Inhibition of 3H MTX uptake Ki, L1210, mouse L1210 tumor cells; high Ki = low affinity for RFC
# T1 construct: endogenous in cells; host or cells: L1210
# T1 sequence (P41438 1-512): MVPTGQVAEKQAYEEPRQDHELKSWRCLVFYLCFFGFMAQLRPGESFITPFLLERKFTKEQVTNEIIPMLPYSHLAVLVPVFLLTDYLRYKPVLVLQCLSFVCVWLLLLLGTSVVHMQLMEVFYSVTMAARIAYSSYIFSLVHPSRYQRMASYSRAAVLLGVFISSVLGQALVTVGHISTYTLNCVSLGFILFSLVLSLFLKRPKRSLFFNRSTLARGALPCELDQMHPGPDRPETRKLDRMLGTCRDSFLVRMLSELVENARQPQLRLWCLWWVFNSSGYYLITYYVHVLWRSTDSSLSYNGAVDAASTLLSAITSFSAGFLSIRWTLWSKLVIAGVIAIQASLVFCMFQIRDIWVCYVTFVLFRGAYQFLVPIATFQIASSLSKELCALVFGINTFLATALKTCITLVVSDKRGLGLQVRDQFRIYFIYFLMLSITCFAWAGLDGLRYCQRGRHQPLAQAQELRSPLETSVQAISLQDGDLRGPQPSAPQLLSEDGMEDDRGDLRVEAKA
# [4] = target: T2, thymidylate synthase (TS) from L1210 mouse leukaemia cells (Mus musculus, UniProt P07607); test: Inhibition of isolated L1210 thymidylate synthase; assay type: biochemical
# T2 construct: obtained in partially purified form from L1210 mouse leukaemia cells; endogenous in cells; host or cells: L1210 mouse leukaemia cells (enzyme partially purified)
# T2 sequence (P07607 whole entry): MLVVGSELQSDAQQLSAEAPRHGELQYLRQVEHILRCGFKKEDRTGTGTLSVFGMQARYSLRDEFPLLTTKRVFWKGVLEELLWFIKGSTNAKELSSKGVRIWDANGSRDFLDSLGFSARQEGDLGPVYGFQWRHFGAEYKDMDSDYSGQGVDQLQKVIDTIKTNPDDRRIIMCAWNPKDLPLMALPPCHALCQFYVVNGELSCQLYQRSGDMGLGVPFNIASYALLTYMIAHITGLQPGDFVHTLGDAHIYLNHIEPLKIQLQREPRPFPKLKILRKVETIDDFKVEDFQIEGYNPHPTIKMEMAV
# [5] = target: T3, α-FR (Mus musculus, UniProt P35846); test: Binding to α-FR relative to folic acid, L1210-FBP cells; conditions: L1210-FBP mouse tumor cells overexpressing α-FR; folic acid = 1
# T3 construct: endogenous in cells; host or cells: mouse L1210-FBP cells
# T3 sequence (P35846 25-232): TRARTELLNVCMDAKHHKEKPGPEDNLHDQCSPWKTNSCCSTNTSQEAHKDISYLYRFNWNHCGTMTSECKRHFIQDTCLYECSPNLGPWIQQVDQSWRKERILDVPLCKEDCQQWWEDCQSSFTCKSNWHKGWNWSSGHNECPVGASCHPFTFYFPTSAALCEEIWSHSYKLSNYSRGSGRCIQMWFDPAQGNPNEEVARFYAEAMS
# [6] = test system: KB cells; test: Inhibition of cell growth, KB cells; conditions: for fold increased IC50 in presence of folic acid, KB: 20 nM LV, IC50 + 1 μM FA vs without FA; for IC50: Homo sapiens, KB, read-out: Inhibition of cell growth, IC50, KB, 20 nM LV;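 on all read-outs here: KB nasopharyngeal carcinoma cells express the α-folate receptor, and leucovorin at 20 nM was the folate source in the growth medium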
# [7] = target: T4, α-FR (Homo sapiens, UniProt P15328); test: Binding to α-FR relative to folic acid, A431-FBP cells; conditions: human A431 cells transfected with α-FR; folic acid = 1
# T4 construct: expressed in transfected cells; host or cells: A431 (human vulvar carcinoma)
# T4 sequence (P15328 25-234): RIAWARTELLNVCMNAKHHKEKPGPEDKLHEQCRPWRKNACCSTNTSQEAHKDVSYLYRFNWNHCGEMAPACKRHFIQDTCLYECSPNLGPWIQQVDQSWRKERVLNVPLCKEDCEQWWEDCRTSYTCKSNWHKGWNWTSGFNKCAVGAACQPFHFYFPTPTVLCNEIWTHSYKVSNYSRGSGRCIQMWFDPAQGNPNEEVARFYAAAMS
# [8] = target: T5, reduced-folate carrier (RFC) (Homo sapiens, UniProt P41440); test: Inhibition of 3H MTX uptake in W1L2 cells; assay type: cell-based; conditions: Inhibition of 3H MTX uptake Ki, W1L2, human lymphoblastoid W1L2 cells; high Ki = low affinity for RFC
# T5 construct: endogenous in cells; host or cells: W1L2
# T5 sequence (P41440 1-591): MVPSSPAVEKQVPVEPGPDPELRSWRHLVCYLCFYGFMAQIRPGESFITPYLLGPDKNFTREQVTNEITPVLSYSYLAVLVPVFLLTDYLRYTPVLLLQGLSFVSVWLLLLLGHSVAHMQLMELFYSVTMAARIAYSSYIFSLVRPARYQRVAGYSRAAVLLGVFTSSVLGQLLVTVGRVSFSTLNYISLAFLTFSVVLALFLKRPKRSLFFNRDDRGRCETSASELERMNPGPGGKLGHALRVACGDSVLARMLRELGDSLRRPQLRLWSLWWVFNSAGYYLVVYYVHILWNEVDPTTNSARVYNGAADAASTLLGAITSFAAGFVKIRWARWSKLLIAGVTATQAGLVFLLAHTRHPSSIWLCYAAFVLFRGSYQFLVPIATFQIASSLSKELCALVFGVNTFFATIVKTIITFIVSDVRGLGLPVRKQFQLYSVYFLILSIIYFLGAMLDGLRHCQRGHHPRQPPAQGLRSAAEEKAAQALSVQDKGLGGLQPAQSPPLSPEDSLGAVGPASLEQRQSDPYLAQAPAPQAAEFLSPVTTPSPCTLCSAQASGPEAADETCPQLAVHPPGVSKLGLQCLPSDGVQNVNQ
# [9] = Homo sapiens, read-out: Inhibition of cell growth, IC50, A431-FBP
Structure (SMILES),"fold increased IC50 in presence of folic acid, A431 [1]",IC50 [1],"fold increased sensitivity compared with A431, A431-FBP ([2]; 20 nM LV)","fold increased IC50 in presence of folic acid, A431-FBP ([2]; 20 nM LV)","IC50 [2, 9]",Ki [3],"Ki ([4]; read-out: Inhibition of isolated L1210 TS, Kiapp)","Inverse relative affinity for α-FR, L1210-FBP [5]","fold increased IC50 in presence of folic acid, KB [6]",IC50 [6],"Inverse relative affinity for α-FR, A431-FBP [7]",Ki [8],"IC50 ([2]; read-out: Inhibition of cell growth, IC50, A431-FBP + 1 μM FA, 20 nM LV, + 1 μM folic acid)","Ki ([4]; Inhibition of isolated L1210 TS, Kiapp)"
"C#CCN(c1ccc(C(=O)N[C@@H](CCC(=O)N[C@H](CCC(=O)O)C(=O)O)C(=O)O)cc1)C1CCc2cc3nc(C)[nH]c(=O)c3cc21 (mixture of isomers) [CB300638 (R, S), N-{-{4-[N-((6RS)-2-methyl-4-oxo-3,4,7,8-tetrahydro-6H-cyclopenta[g]quinazolin-6-yl)-N-(prop-2-ynyl)amino]benzoyl}-L-γ-glutamyl}-D-glutamic acid]",(1) fold,1400 ± 230 nM,(220) fold,(130) fold,6.5 ± 0.1 nM,166000 ± 34000 nM,0.42 nM,0.60 ± 0.06,(140) fold,5.3 ± 2.5 nM,0.59 ± 0.03,279000 ± 146000 nM,,
"C#CCN(c1ccc(C(=O)N[C@@H](CCC(=O)N[C@H](CCC(=O)O)C(=O)O)C(=O)O)cc1)C1CCc2cc3nc(CO)[nH]c(=O)c3cc21 (mixture of isomers) [CB300945 (R, S)]",(1) fold,9800 ± 3400 nM,(4700) fold,(3100) fold,2.1 ± 1.1 nM,> 250000 nM,,0.73 ± 0.06,(2100) fold,3.4 ± 0.9 nM,0.67 ± 0.11,> 250000 nM,6500 ± 860 nM,2.6 nM and 3.3 nM
